Experimental data reported in patent publication US20070049564A1 (Wyeth, priority 2005, published 2007).
≈ marks a conversion by molar mass, not a printed value. Read-outs that look alike come from different tables or passages of the source.

Assays:
S. pneumoniae+ GC 4465 = assay: MIC, broth microdilution; conditions: Streptococcus pneumoniae, S. pneumoniae+ GC 4465
S. aureus GC 6466 = assay: MIC, broth microdilution; conditions: Staphylococcus aureus, GC6466, S. aureus GC 6466
E. coli GC 4560 = assay: MIC, broth microdilution; conditions: Escherichia coli, GC4560, E. coli GC 4560
S. aureus GC 6467 = assay: MIC, broth microdilution; conditions: Staphylococcus aureus, GC6467, S. aureus GC 6467
E. coli GC 2232 = assay: MIC, broth microdilution; conditions: Escherichia coli, GC2232, E. coli GC 2232
E. coli GC 2231 = assay: MIC, broth microdilution; conditions: Escherichia coli, GC2231, E. coli GC 2231
S. epidermidis GC 4935 = assay: MIC, broth microdilution; conditions: Staphylococcus epidermidis, GC4935, S. epidermidis GC 4935
E. faecalis GC 2242 = assay: MIC, broth microdilution; conditions: Enterococcus faecalis, GC2242, E. faecalis GC 2242
S. aureus GC 4536 = assay: MIC, broth microdilution; conditions: Staphylococcus aureus, GC4536, S. aureus GC 4536
E. coli GC 2272 = assay: MIC, broth microdilution; conditions: Escherichia coli, GC2272, E. coli GC 2272
E. coli GC 2234 = assay: MIC, broth microdilution; conditions: Escherichia coli, GC2234, E. coli GC 2234
Method: Antimicrobial susceptibility testing. The in vitro activities of the antibiotics are determined by the broth microdilution method as recommended by the National Committee for Clinical Laboratory Standards (NCCLS) (1). Mueller-Hinton II broth (MHBII)(BBL Cockeysville, Md.) is the medium employed in the testing procedures. Microtiter plates containing serial dilutions of each antimicrobial agent are inoculated with each organism to yield the appropriate density (10^5 CFU/ml) in a 100 μl final volume. The plates are incubated for 18-22 hours at 35° C. in ambient air.
Representative compounds were first incubated in mouse serum for an hour prior to the in vitro testing against a panel of selected gram-positive and gram-negative bacteria strains. All compounds were also pre-incubated in water for an hour prior to testing as control.

S. pneumoniae* GC 4465 = assay: MIC, broth microdilution; conditions: Streptococcus pneumoniae, S. pneumoniae* GC 4465
S. aureus GC 2216 = assay: MIC, broth microdilution; conditions: Staphylococcus aureus, GC2216, S. aureus GC 2216
E. faecalis GC 2267 = assay: MIC, broth microdilution; conditions: Enterococcus faecalis, GC2267, E. faecalis GC 2267
P. aeruginosa GC 2214 = assay: MIC, broth microdilution; conditions: Pseudomonas aeruginosa, GC2214, P. aeruginosa GC 2214
E. coli GC 4559 = assay: MIC, broth microdilution; conditions: Escherichia coli, GC4559, E. coli GC 4559
E. coli GC 2203 = assay: MIC, broth microdilution; conditions: Escherichia coli, GC2203, E. coli GC 2203
Staph. aureus Smith = assay: In vivo activity (oral, iv; ED50) against Staph. aureus Smith in mice
Method: Representative examples of compounds of Formula I were tested for the oral efficacy using S. aureus Smith in mice.

S. aureus GC 1131 = assay: MIC, broth microdilution; conditions: Staphylococcus aureus, GC1131, S. aureus GC 1131
E. coli GC 6465 = assay: MIC, broth microdilution; conditions: Escherichia coli, GC6465, E. coli GC 6465
[1] = Staphylococcus aureus, in Mus musculus, po, read-out: ED50 Staph Smith SOD
[2] = iv, read-out: ED50 Staph Smith SIV

| SMILES | MIC (S. pneumoniae+ GC 4465; Mouse Serum pre-incubation) [µg/mL] | MIC (S. pneumoniae+ GC 4465; Water pre-incubation) [µg/mL] | MIC (S. aureus GC 6466; Mouse Serum pre-incubation) [µg/mL] | MIC (S. aureus GC 6466; Water pre-incubation) [µg/mL] | MIC (E. coli GC 4560; Mouse Serum pre-incubation) [µg/mL] | MIC (E. coli GC 4560; Water pre-incubation) [µg/mL] | MIC (S. aureus GC 6467; Mouse Serum pre-incubation) [µg/mL] | MIC (S. aureus GC 6467; Water pre-incubation) [µg/mL] | MIC (E. coli GC 2232; Mouse Serum pre-incubation) [µg/mL] | MIC (E. coli GC 2232; Water pre-incubation) [µg/mL] | MIC (E. coli GC 2231; Mouse Serum pre-incubation) [µg/mL] | MIC (E. coli GC 2231; Water pre-incubation) [µg/mL] | MIC (S. epidermidis GC 4935; Mouse Serum pre-incubation) [µg/mL] | MIC (S. epidermidis GC 4935; Water pre-incubation) [µg/mL] | MIC (E. faecalis GC 2242; Mouse Serum pre-incubation) [µg/mL] | MIC (E. faecalis GC 2242; Water pre-incubation) [µg/mL] | MIC (S. aureus GC 4536; Mouse Serum pre-incubation) [µg/mL] | MIC (S. aureus GC 4536; Water pre-incubation) [µg/mL] | MIC (E. coli GC 2272; Mouse Serum pre-incubation) [µg/mL] | MIC (E. coli GC 2272; Water pre-incubation) [µg/mL] | other results |
| --- | --- | --- | --- | --- | --- | --- | --- | --- | --- | --- | --- | --- | --- | --- | --- | --- | --- | --- | --- | --- | --- |
| CCCN(CC(=O)Nc1cc(N(C)C)c2c(c1O)C(=O)C1=C(O)[C@]3(O)C(=O)C(C(N)=O)=C(O)[C@@H](N(C)C)[C@@H]3C[C@@H]1C2)C(=O)OCC(C)C [Example 16, isobutyl 2-{[(5aR,6aS,7S,10aS)-9-(aminocarbonyl)-4,7-bis(dimethylamino)-1,8,10a,11-tetrahydroxy-10,12-dioxo-5,5a,6,6a,7,10,10a,12-octahydrotetracen-2-yl]amino}-2-oxoethyl(propyl)carbamate] | 8 (≈ 11.9 µM) | 8 (≈ 11.9 µM) | 4 (≈ 5.95 µM) | 8 (≈ 11.9 µM) | 2 (≈ 2.98 µM) | 4 (≈ 5.95 µM) | 8 (≈ 11.9 µM) | 8 (≈ 11.9 µM) | > 64 | > 64 | > 64 | > 64 | 8 (≈ 11.9 µM) | 8 (≈ 11.9 µM) | 8 (≈ 11.9 µM) | 8 (≈ 11.9 µM) | 2 (≈ 2.98 µM) | 4 (≈ 5.95 µM) | > 64 | > 64 | MIC (E. coli GC 2234; Mouse Serum pre-incubation): > 64 µg/mL; MIC (E. coli GC 2234; Water pre-incubation): > 64 µg/mL; MIC (S. pneumoniae* GC 4465; Mouse Serum pre-incubation): 4 µg/mL (≈ 5.95 µM); MIC (S. pneumoniae* GC 4465; Water pre-incubation): 4 µg/mL (≈ 5.95 µM); MIC (S. aureus GC 2216; Mouse Serum pre-incubation): 2 µg/mL (≈ 2.98 µM); MIC (S. aureus GC 2216; Water pre-incubation): 4 µg/mL (≈ 5.95 µM); MIC (E. faecalis GC 2267; Mouse Serum pre-incubation): 4 µg/mL (≈ 5.95 µM); MIC (E. faecalis GC 2267; Water pre-incubation): 8 µg/mL (≈ 11.9 µM); MIC (P. aeruginosa GC 2214; Mouse Serum pre-incubation): > 64 µg/mL; MIC (P. aeruginosa GC 2214; Water pre-incubation): > 64 µg/mL; MIC (E. coli GC 4559; Mouse Serum pre-incubation): > 64 µg/mL; MIC (E. coli GC 4559; Water pre-incubation): > 64 µg/mL; MIC (E. coli GC 2203; Mouse Serum pre-incubation): 16 µg/mL (≈ 23.8 µM); MIC (E. coli GC 2203; Water pre-incubation): 64 µg/mL (≈ 95.3 µM); ED50 (Staph. aureus Smith; [1]): > 32 mg/kg; ED50 (Staph. aureus Smith; [2]): > 2 mg/kg; MIC (S. aureus GC 1131; Mouse Serum pre-incubation): 2 µg/mL (≈ 2.98 µM); MIC (S. aureus GC 1131; Water pre-incubation): 4 µg/mL (≈ 5.95 µM); MIC (E. coli GC 6465; Mouse Serum pre-incubation): > 64 µg/mL; MIC (E. coli GC 6465; Water pre-incubation): > 64 µg/mL |
| CCCN(CC(=O)Nc1cc(N(C)C)c2c(c1O)C(=O)C1=C(O)[C@]3(O)C(=O)C(C(N)=O)=C(O)[C@@H](N(C)C)[C@@H]3C[C@@H]1C2)C(=O)OCOC(=O)c1ccc(OC)cc1 [Example 6, ({[(2-{[(5aR,6aS,7S,10aS)-9-(aminocarbonyl)-4,7-bis(dimethylamino)-1,8,10a,11-tetrahydroxy-10,12-dioxo-5,5a,6,6a,7,10,10a,12-octahydrotetracen-2-yl]amino}-2-oxoethyl)(propyl)amino]carbonyl}oxy)methyl 4-methoxybenzoate] | 2 (≈ 2.56 µM) | 2 (≈ 2.56 µM) | 0.25 (≈ 0.321 µM) | 1 (≈ 1.28 µM) | 0.25 (≈ 0.321 µM) | 2 (≈ 2.56 µM) | 2 (≈ 2.56 µM) | 4 (≈ 5.13 µM) | 2 (≈ 2.56 µM) | 32 (≈ 41 µM) | 2 (≈ 2.56 µM) | 64 (≈ 82.1 µM) | 1 (≈ 1.28 µM) | 4 (≈ 5.13 µM) | 1 (≈ 1.28 µM) | 2 (≈ 2.56 µM) | 0.5 (≈ 0.641 µM) | 2 (≈ 2.56 µM) | 1 (≈ 1.28 µM) | 16 (≈ 20.5 µM) | MIC (E. coli GC 2234; Mouse Serum pre-incubation): 1 µg/mL (≈ 1.28 µM); MIC (E. coli GC 2234; Water pre-incubation): 16 µg/mL (≈ 20.5 µM); MIC (S. pneumoniae* GC 4465; Mouse Serum pre-incubation): 0.12 µg/mL (≈ 0.154 µM); MIC (S. pneumoniae* GC 4465; Water pre-incubation): 0.25 µg/mL (≈ 0.321 µM); MIC (S. aureus GC 2216; Mouse Serum pre-incubation): 0.5 µg/mL (≈ 0.641 µM); MIC (S. aureus GC 2216; Water pre-incubation): 2 µg/mL (≈ 2.56 µM); MIC (E. faecalis GC 2267; Mouse Serum pre-incubation): 1 µg/mL (≈ 1.28 µM); MIC (E. faecalis GC 2267; Water pre-incubation): 4 µg/mL (≈ 5.13 µM); MIC (P. aeruginosa GC 2214; Mouse Serum pre-incubation): 32 µg/mL (≈ 41 µM); MIC (P. aeruginosa GC 2214; Water pre-incubation): > 64 µg/mL; MIC (E. coli GC 4559; Mouse Serum pre-incubation): 2 µg/mL (≈ 2.56 µM); MIC (E. coli GC 4559; Water pre-incubation): 16 µg/mL (≈ 20.5 µM); MIC (E. coli GC 2203; Mouse Serum pre-incubation): 2 µg/mL (≈ 2.56 µM); MIC (E. coli GC 2203; Water pre-incubation): 16 µg/mL (≈ 20.5 µM); ED50 (Staph. aureus Smith; [1]): 20.1 mg/kg; ED50 (Staph. aureus Smith; [2]): 0.87 mg/kg; MIC (S. aureus GC 1131; Mouse Serum pre-incubation): 0.5 µg/mL (≈ 0.641 µM); MIC (S. aureus GC 1131; Water pre-incubation): 1 µg/mL (≈ 1.28 µM); MIC (E. coli GC 6465; Mouse Serum pre-incubation): 4 µg/mL (≈ 5.13 µM); MIC (E. coli GC 6465; Water pre-incubation): > 64 µg/mL |
| CCCN(CC(=O)Nc1cc(N(C)C)c2c(c1O)C(=O)C1=C(O)[C@]3(O)C(=O)C(C(N)=O)=C(O)[C@@H](N(C)C)[C@@H]3C[C@@H]1C2)C(=O)OCOC(=O)C(C)(C)C [Example 9, ({[(2-{[(5aR,6aS,7S,10aS)-9-(aminocarbonyl)-4,7-bis(dimethylamino)-1,8,10a,11-tetrahydroxy-10,12-dioxo-5,5a,6,6a,7,10,10a,12-octahydrotetracen-2-yl]amino}-2-oxoethyl)(propyl)amino]carbonyl}oxy)methyl pivalate] | 2 (≈ 2.74 µM) | 2 (≈ 2.74 µM) | 0.12 (≈ 0.164 µM) | 0.12 (≈ 0.164 µM) | 0.25 (≈ 0.343 µM) | 1 (≈ 1.37 µM) | 1 (≈ 1.37 µM) | 2 (≈ 2.74 µM) | 1 (≈ 1.37 µM) | 8 (≈ 11 µM) | 2 (≈ 2.74 µM) | 64 (≈ 87.7 µM) | 0.25 (≈ 0.343 µM) | 1 (≈ 1.37 µM) | 0.5 (≈ 0.685 µM) | 1 (≈ 1.37 µM) | 0.5 (≈ 0.685 µM) | 0.5 (≈ 0.685 µM) | 0.5 (≈ 0.685 µM) | 8 (≈ 11 µM) | MIC (E. coli GC 2234; Mouse Serum pre-incubation): 0.5 µg/mL (≈ 0.685 µM); MIC (E. coli GC 2234; Water pre-incubation): 8 µg/mL (≈ 11 µM); MIC (S. pneumoniae* GC 4465; Mouse Serum pre-incubation): < 0.06 µg/mL; MIC (S. pneumoniae* GC 4465; Water pre-incubation): < 0.06 µg/mL; MIC (S. aureus GC 2216; Mouse Serum pre-incubation): 0.25 µg/mL (≈ 0.343 µM); MIC (S. aureus GC 2216; Water pre-incubation): 0.5 µg/mL (≈ 0.685 µM); MIC (E. faecalis GC 2267; Mouse Serum pre-incubation): 1 µg/mL (≈ 1.37 µM); MIC (E. faecalis GC 2267; Water pre-incubation): 2 µg/mL (≈ 2.74 µM); MIC (P. aeruginosa GC 2214; Mouse Serum pre-incubation): 16 µg/mL (≈ 21.9 µM); MIC (P. aeruginosa GC 2214; Water pre-incubation): > 64 µg/mL; MIC (E. coli GC 4559; Mouse Serum pre-incubation): 1 µg/mL (≈ 1.37 µM); MIC (E. coli GC 4559; Water pre-incubation): 8 µg/mL (≈ 11 µM); MIC (E. coli GC 2203; Mouse Serum pre-incubation): 0.5 µg/mL (≈ 0.685 µM); MIC (E. coli GC 2203; Water pre-incubation): 4 µg/mL (≈ 5.48 µM); ED50 (Staph. aureus Smith; [1]): 11.3 mg/kg; ED50 (Staph. aureus Smith; [2]): 0.32 mg/kg; MIC (S. aureus GC 1131; Mouse Serum pre-incubation): < 0.06 µg/mL; MIC (S. aureus GC 1131; Water pre-incubation): 0.25 µg/mL (≈ 0.343 µM); MIC (E. coli GC 6465; Mouse Serum pre-incubation): 4 µg/mL (≈ 5.48 µM); MIC (E. coli GC 6465; Water pre-incubation): > 64 µg/mL |
